# From ChEMBL document CHEMBL1201862, “PubChem BioAssay data set” (2004)
#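 48-hour exposure; five concentrations; linearly interpolated endpoints. Here, GI50 denotes the concentration required for 50% inhibition of growth.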 Calls of active or inactive are those of the source. No stated cut-off is given here; in the data, active = GI50 up to about 1.1 µM and inactive = higher.
# How the values were obtained:
# Assay in all cases: inhibition of tumour cell growth, NCI panel, 48 h
# [1] = system: OVCAR-4
# [2] = system: HOP-62
# [3] = system: SK-MEL-5
# [4] = system: UACC-257
# [5] = system: ACHN
# [6] = system: Hs-578T
# [7] = system: NCI-H23
# [8] = system: RXF 393
# [9] = system: HT-29
# [10] = system: SF-268
# [11] = system: U-251
# [12] = system: KM12
# [13] = system: SN12C
# [14] = system: HCT-15
# [15] = system: OVCAR-5
# [16] = system: Malme-3M
# [17] = system: T47D
# [18] = system: BT-549
# [19] = system: SF-539
# [20] = system: SNB-75
Compound,GI50 [1],GI50 [2],GI50 [3],GI50 [4],GI50 [5],GI50 [6],GI50 [7],GI50 [8],GI50 [9],GI50 [10],GI50 [11],GI50 [12],GI50 [13],GI50 [14] [µM],GI50 [15],GI50 [16],GI50 [17],GI50 [18],GI50 [19],GI50 [20]
O=c1[nH]c(=O)n(CCOc2ccc(Cl)cc2)cc1Nc1ccccc1,49 µM (inactive),> 100 µM (inactive),> 100 µM (inactive),> 100 µM (inactive),> 100 µM (inactive),29.2 µM (inactive),> 100 µM (inactive),> 100 µM (inactive),> 100 µM (inactive),39.9 µM (inactive),> 100 µM (inactive),> 100 µM (inactive),> 100 µM (inactive),> 100,> 100 µM (inactive),–,–,–,–,–
CC(=O)N[C@@H](Cc1ccc(O)cn1)C(=O)NCc1ccc(Cl)cc1,> 100 µM (inactive),> 100 µM (inactive),> 100 µM (inactive),47.5 µM (inactive),> 100 µM (inactive),–,> 100 µM (inactive),> 100 µM (inactive),> 100 µM (inactive),–,> 100 µM (inactive),> 100 µM (inactive),> 100 µM (inactive),> 100,> 100 µM (inactive),> 100 µM (inactive),94 µM (inactive),> 100 µM (inactive),> 100 µM (inactive),–
COC(=O)C(Cc1nc2ccc(Cl)cc2nc1O)C(=O)C(=O)Nc1ccccc1[N+](=O)[O-] (stereo not given),> 100 µM (inactive),> 100 µM (inactive),> 100 µM (inactive),> 100 µM (inactive),> 100 µM (inactive),–,> 100 µM (inactive),> 100 µM (inactive),> 100 µM (inactive),> 100 µM (inactive),> 100 µM (inactive),> 100 µM (inactive),> 100 µM (inactive),> 100,> 100 µM (inactive),> 100 µM (inactive),–,–,> 100 µM (inactive),> 100 µM (inactive)
CC1(C)COC(c2ccc(C(F)(F)F)cc2C(O)c2ccc3ccccc3c2)=N1 (stereo not given),> 10 µM (inactive),> 10 µM (inactive),> 10 µM (inactive),> 10 µM (inactive),> 10 µM (inactive),–,28.9 µM (inactive),16 µM (inactive),> 10 µM (inactive),82 µM (inactive),> 10 µM (inactive),> 10 µM (inactive),> 10 µM (inactive),> 10,> 10 µM (inactive),> 10 µM (inactive),–,–,64.4 µM (inactive),15.8 µM (inactive)
O=C1c2ccccc2C(=O)c2sc(Nc3ccc(Cl)cc3)nc21,1.65 µM (inactive),4.68 µM (inactive),1.8 µM (inactive),1.75 µM (inactive),1.57 µM (inactive),–,1.55 µM (inactive),1.53 µM (inactive),4.15 µM (inactive),2.4 µM (inactive),1.62 µM (inactive),2.04 µM (inactive),1.85 µM (inactive),1.8,5.13 µM (inactive),1.96 µM (inactive),–,–,4.55 µM (inactive),8.41 µM (inactive)
CC(=O)c1ccc(N2CCN(C3=C(Cl)C(=O)c4c(O)ccc(O)c4C3=O)CC2)cc1,3.14 µM (inactive),8.95 µM (inactive),5.73 µM (inactive),7.6 µM (inactive),–,–,2.92 µM (inactive),3.02 µM (inactive),2.12 µM (inactive),3.1 µM (inactive),3.4 µM (inactive),10 µM (inactive),–,8.79,18.9 µM (inactive),11.4 µM (inactive),2.91 µM (inactive),–,13.8 µM (inactive),12.7 µM (inactive)
COc1cc2c[n+](C)c3c4cc(OC)c(OC(C)C)cc4ccc3c2cc1OC,62.7 µM (inactive),> 100 µM (inactive),23.4 µM (inactive),29.4 µM (inactive),> 100 µM (inactive),–,48.6 µM (inactive),> 100 µM (inactive),49.3 µM (inactive),47 µM (inactive),29.6 µM (inactive),29.8 µM (inactive),37.8 µM (inactive),> 100,69.7 µM (inactive),29.4 µM (inactive),–,–,> 100 µM (inactive),44.9 µM (inactive)
CCC(O)(c1ccc(OC)cc1)C(c1ccc(OCc2ccccc2)cc1)c1ccc(OCc2ccccc2)cc1 (stereo not given),> 100 µM (inactive),> 100 µM (inactive),> 100 µM (inactive),> 100 µM (inactive),> 100 µM (inactive),–,> 100 µM (inactive),> 100 µM (inactive),> 100 µM (inactive),> 100 µM (inactive),> 100 µM (inactive),> 100 µM (inactive),99.5 µM (inactive),> 100,> 100 µM (inactive),> 100 µM (inactive),–,–,> 100 µM (inactive),> 100 µM (inactive)
CN(C)CCCOc1ccc(/C=C2/CCC/C(=C/c3ccc(OCCCN(C)C)cc3)C2=O)cc1,2.31 µM (inactive),1.82 µM (inactive),2.23 µM (inactive),2.03 µM (inactive),1.99 µM (inactive),–,1.74 µM (inactive),1.61 µM (inactive),0.442 µM (active),2 µM (inactive),0.918 µM (active),1.32 µM (inactive),1.39 µM (inactive),0.995,0.239 µM (active),1.78 µM (inactive),–,–,1.6 µM (inactive),1.28 µM (inactive)
OCC(O)COc1c(Cl)cc(Cl)cc1Cl (stereo not given),> 100 µM (inactive),> 100 µM (inactive),> 100 µM (inactive),> 100 µM (inactive),> 100 µM (inactive),–,> 57.4 µM (inactive),> 100 µM (inactive),> 100 µM (inactive),> 100 µM (inactive),> 100 µM (inactive),> 100 µM (inactive),> 100 µM (inactive),> 100,> 100 µM (inactive),> 100 µM (inactive),–,–,> 100 µM (inactive),> 100 µM (inactive)
CCCOc1nc(N)c2cnn(C3CCCCO3)c2n1 (stereo not given),> 100 µM (inactive),> 100 µM (inactive),> 100 µM (inactive),> 100 µM (inactive),> 100 µM (inactive),–,> 100 µM (inactive),> 100 µM (inactive),> 100 µM (inactive),> 100 µM (inactive),> 100 µM (inactive),> 100 µM (inactive),> 100 µM (inactive),> 100,> 100 µM (inactive),> 100 µM (inactive),–,–,> 100 µM (inactive),56.8 µM (inactive)
CCOC(=O)[C@@]12C3C=CC(CC3)[C@]1(C(=O)c1ccccc1)C(=O)C(=O)N2c1ccccc1 (stereo not given in full),> 100 µM (inactive),> 100 µM (inactive),> 100 µM (inactive),–,> 100 µM (inactive),–,> 100 µM (inactive),> 100 µM (inactive),> 100 µM (inactive),> 100 µM (inactive),> 100 µM (inactive),> 100 µM (inactive),> 100 µM (inactive),> 100,> 100 µM (inactive),> 100 µM (inactive),> 100 µM (inactive),–,> 100 µM (inactive),–
CCCCN/C(=N\C#N)N(Cc1ccccc1)Cc1ccccc1,27.3 µM (inactive),26.6 µM (inactive),13.3 µM (inactive),20.5 µM (inactive),29.7 µM (inactive),–,24.6 µM (inactive),45.2 µM (inactive),14.7 µM (inactive),38.1 µM (inactive),28.5 µM (inactive),28.2 µM (inactive),27.7 µM (inactive),16.3,23.5 µM (inactive),37.2 µM (inactive),–,–,22.2 µM (inactive),31.5 µM (inactive)
CCCc1c(OC)c(=O)c2c(O)cc(OC)c3c4c(OC)cc(O)c5c(=O)c(OC)c(CCC)c(c1c23)c54,3.72 µM (inactive),6.47 µM (inactive),3.29 µM (inactive),13.4 µM (inactive),4.51 µM (inactive),–,7.94 µM (inactive),–,4.79 µM (inactive),5 µM (inactive),0.615 µM (active),8.57 µM (inactive),3.15 µM (inactive),2.9,10.4 µM (inactive),2.43 µM (inactive),–,2.74 µM (inactive),1.49 µM (inactive),1.59 µM (inactive)
C=CCC1(CN(C)C)CC/C(=C\c2ccc3c(c2)OCO3)C1=O (stereo not given),67.5 µM (inactive),> 100 µM (inactive),22.7 µM (inactive),40.7 µM (inactive),31.6 µM (inactive),–,65.8 µM (inactive),59.8 µM (inactive),36 µM (inactive),91 µM (inactive),52.1 µM (inactive),42.3 µM (inactive),> 100 µM (inactive),39.4,> 100 µM (inactive),> 100 µM (inactive),–,–,88.9 µM (inactive),> 100 µM (inactive)
COc1ccccc1N1CCN(CCCNC(=O)c2cc(Cl)c(N)c(Cl)c2)CC1,52 µM (inactive),29.7 µM (inactive),18.2 µM (inactive),22.8 µM (inactive),55.2 µM (inactive),67.1 µM (inactive),49.7 µM (inactive),27 µM (inactive),24.1 µM (inactive),77.4 µM (inactive),27 µM (inactive),26.9 µM (inactive),20 µM (inactive),18.5,44.6 µM (inactive),18.8 µM (inactive),42.9 µM (inactive),–,28.6 µM (inactive),59.3 µM (inactive)
